Here are results for 21 compounds from patent EP0354693A1, “Therapeutic agents” (The Boots Company PLC, priority 1988, dated 1990).

This assay concerns BALB/c mice. Description: cutaneous hypersensitivity test (CH test), oxazolone-induced ear swelling. The format is in vivo. The note with it: Mus musculus, ip; intraperitoneal, at sensitisation and every 24 hours for a further 7 days; lowest dose used giving 20% or greater reduction in ear swelling (p <0.05) in two out of three CH tests; read-out: Minimum Effective Dose. The protocol:
This test was carried out in the following way.
Female BALB/c mice, weight range 16-24 g, were used in groups of eight. The abdomen of each mouse was shaved and 20 µl of a solution of a sensitising agent, 5% w/v 4-ethoxymethylene-2-phenyl-2-oxazolin-5-one (oxazolone) in acetone:ethanol (1:1 by volume), was applied to the shaved area. Immediately after sensitisation, the test compound in one of the dosages listed below was injected intraperitoneally as a suspension in 1.5% v/v sorbitan esters, under the trade name Tween 80, in sterile water (100µl). 100 µl of the same suspension was injected likewise every 24 hours for a further 7 days. The dosages used were selected from the following values: 50, 30, 10, 3, 1, 0.3, 0.1, 0.03 or 0.01 mg/kg.
Two groups of eight BALB/c mice were used as a control simultaneously with each test in a similar manner to that described above except that no test compound was included in the daily injections.
On the seventh day after sensitisation, 10 µl of a solution of 1% w/v oxazolone in acetone: olive oil (either 1:1 or 3:1 by volume) was applied to one ear (the challenged ear) of each of the test mice and the control mice. After 24 hours the thickness of the challenged ear and the thickness of the non-challenged ear of the same animal were measured with an engineer's screw gauge micrometer. The difference in thickness between the challenged ear and the non-challenged ear in each animal is a measure of the response of that animal to oxazolone. A comparison between the response of mice treated with the test compound and mice treated with the control indicates the effectiveness of the test compound as an immunomodulatory agent. The compounds were considered to be active at a particular dose if a 20% or greater reduction in ear swelling, which was statistically significant (p <0.05) according to Dunnett's test, between treated and control groups was obtained in two out of three CH tests, (or, where more than three tests have been carried out, a majority of the tests) at that dose (see for example Int. Arch. Allergy, 38, p246-259 (1970)).
Each of the compounds of formula I illustrated in Table A below was active at 50 mg/kg in two out of three tests at 50 mg/kg unless indicated otherwise (see Notes following the Table). The minimum effective dose (ie the lowest dose of those used at which the compound is active as defined above) for each compound is given in Table A. The Example (Ex) number or numbers listed adjacent to each compound indicates the process or processes illustrating the preparation of that compound in the Examples.

As for `Cc1ccc2oc(C)c3c(=O)n(-c4ccc(Cl)cc4)nc-3c2c1` [Example 50, 2-(4-chlorophenyl)-4,8-dimethyl[1]-benzopyrano[4,3-c]pyrazol-3(2H)-one], the minimal effective dose came to 50 mg/kg.
The result for `Cc1oc2ccccc2c2nn(-c3cccc(Cl)c3)c(=O)c1-2` [Example 38, 2-(3-chlorophenyl)-4-methyl[1]benzo-pyrano[4,3-c]pyrazol-3(2H)-one] reads 3 mg/kg; that for `CCOC(=O)Cc1oc2ccccc2c2nn(-c3ccc(Cl)cc3)c(=O)c1-2` [Example 41, ethyl 2-(4-chlorophenyl)-3-oxo-2,3-dihydro[1]benzopyrano[4,3-c]pyrazole-4-acetate], 3 mg/kg.
With `Cc1oc2ccccc2c2nn(-c3ccccc3)c(=O)c1-2` [Example 42, 4-methyl-2-phenyl[1]benzopyrano-[4,3-c]pyrazol-3(2H)-one] the figure was 50 mg/kg; with `Cc1oc2ccccc2c2nn(-c3ccc(F)c(Cl)c3)c(=O)c1-2` [Example 45, 2-(3-chloro-4-fluorophenyl)-4-methyl-[1]benzopyrano[4,3-c]pyrazol-3(2H)-one], 0.3 mg/kg; with `CCOC(=O)Cc1oc2ccccc2c2nn(-c3ccc(F)cc3)c(=O)c1-2` [Example 53, ethyl 2-(4-fluorophenyl)-3-oxo-2,3-dihydro[1]benzopyrano[4,3-c]pyrazole-4-acetate], 3 mg/kg.
On to `Cc1ccc(-n2nc3c4ccccc4oc(C)c-3c2=O)cc1Cl` [Example 46, 2-(3-chloro-4-methylphenyl)-4-methyl-[1]benzopyrano[4,3-c]pyrazol-3(2H)-one], for which the minimal effective dose turned out to be 3 mg/kg.
As to `Cc1oc2cccc(C)c2c2nn(-c3ccc(Cl)cc3)c(=O)c1-2` [Example 52, 2-(4-chlorophenyl)-4,9-dimethyl[1]-benzopyrano[4,3-c]pyrazol-3(2H)-one], the minimal effective dose came out at 50 mg/kg.
With `Cc1oc2cc(F)ccc2c2nn(-c3ccc(Cl)cc3)c(=O)c1-2` [Example 48, 2-(4-chlorophenyl)-7-fluoro-4-methyl-[1]benzopyrano[4,3-c]pyrazol-3(2H)-one] the figure was 50 mg/kg; with `Cc1oc2cc(Cl)ccc2c2nn(-c3ccc(Cl)cc3)c(=O)c1-2` [Example 55, 7-chloro-2-(4-chlorophenyl)-4-methyl-[1]benzopyrano[4,3-c]pyrazol-3(2H)-one], 50 mg/kg; with `Cc1oc2ccc(F)cc2c2nn(-c3ccc(Cl)cc3)c(=O)c1-2` [Example 54, 2-(4-chlorophenyl)-8-fluoro-4-methyl-[1]benzopyrano[4,3-c]pyrazol-3(2H)-one], 0.1 mg/kg.
With `Cc1oc2ccccc2c2nn(-c3ccc(C(F)(F)F)cc3)c(=O)c1-2` [Example 47, 4-methyl-2-(4-trifluoromethylphenyl)-[1]benzopyrano[4,3-c]pyrazol-3(2H)-one] the figure was 1 mg/kg.
The result for `Cc1oc2ccccc2c2nn(-c3ccc(Cl)c(Cl)c3)c(=O)c1-2` [Example 36, 2-(3,4-dichlorophenyl)-4-methyl[1]-benzopyrano[4,3-c]pyrazol-3(2H)-one] reads 0.3 mg/kg; that for `Cc1oc2ccccc2c2nn(-c3ccc(F)cc3)c(=O)c1-2` [Example 37, 2-(4-fluorophenyl)-4-methyl[1]benzo-pyrano[4,3-c]pyrazol-3(2H)-one], 1 mg/kg; that for `COc1ccc(-n2nc3c4ccccc4oc(C)c-3c2=O)cc1` [Example 39, 2-(4-methoxyphenyl)-4-methyl[1]benzo-pyrano[4,3-c]pyrazol-3(2H)-one], 50 mg/kg.
Take `CCc1oc2ccccc2c2nn(-c3ccc(Cl)cc3)c(=O)c1-2` [Example 40, 2-(4-chlorophenyl)-4-ethyl[1]benzo-pyrano[4,3-c]pyrazol-3(2H)-one]: the minimal effective dose came to 50 mg/kg.
The result for `COc1cccc2oc(C)c3c(=O)n(-c4ccc(Cl)cc4)nc-3c12` [Example 51, 2-(4-chlorophenyl)-9-methoxy-4-methyl-[1]benzopyrano[4,3-c]pyrazol-3(2H)-one] reads 50 mg/kg; that for `Cc1oc2ccc(O)cc2c2nn(-c3ccc(Cl)cc3)c(=O)c1-2` [Example 56, 2-(4-chlorophenyl)-8-hydroxy-4-methyl-[1]benzopyrano[4,3-c]pyrazol-3(2H)-one], 50 mg/kg.
Take `Cc1oc2ccc(Cl)cc2c2nn(-c3ccc(Cl)cc3)c(=O)c1-2` [Example 49, 8-chloro-2-(4-chlorophenyl)-4-methyl-[1]benzopyrano[4,3-c]pyrazol-3(2H)-one]: the minimal effective dose amounted to 50 mg/kg.
With `Cc1ccc(-n2nc3c4ccccc4oc(C)c-3c2=O)cc1` [Example 43, 4-methyl-2-(4-methylphenyl)[1]benzo-pyrano[4,3-c]pyrazol-3(2H)-one] the figure was 10 mg/kg; with `Cc1oc2ccccc2c2nn(-c3ccc(Br)cc3)c(=O)c1-2` [Example 44, 2-(4-bromophenyl)-4-methyl[1]benzo-pyrano[4,3-c]pyrazol-3(2H)-one], 1 mg/kg.
